{
  "source": "patent US20110280913A1",
  "about": "“Methods and Compositions for Delivering Therapeutic Agents in the Treatment of B-Cell Related Disorders” (THE OHIO STATE UNIVERSITY, priority 2008, published 2011)",
  "key": {"[1]": {"system": "CD20", "assay": "Immunoblot of total CD20 protein", "type": "cell-based, human", "conditions": "48 and 72 hours, relative to vehicle control", "protocol": "Immunoblot assays were performed with the multiple antigen detection immunoblotting method as described previously.^23 Whole-cell lysates were prepared and stored in −80° C. Protein concentration was quantified by the bicinchoninic acid method (Pierce Chemical, Rockford, Ill.). Protein samples (50 μg) were separated by sodium dodecyl sulfate-polyacrylamide gel electrophoresis (12%) and transferred to 0.2-μm nitrocellulose membranes (Whatman Schleicher & Schuell, Keene, N.H.) and incubated with goat antihuman CD20 (Santa Cruz Biotechnology, Santa Cruz, Calif.) or rabbit antiactin (Cell Signaling Technology, Danvers, Mass.) antibodies. Horseradish peroxidase-conjugated goat anti-rabbit IgG (Bio-Rad, Hercules, Calif.) was used as secondary antibody Immune complexes were detected using chemiluminescent substrate (SuperSignal; Pierce Chemical)."}, "[2]": {"system": "CD20", "assay": "Immunophenotyping (flow cytometry) of CD20 on CLL cells", "type": "cell-based, human", "protocol": "(§1) Immunophenotyping was performed to determine the percentage and mean fluorescence intensity of CD20, CD19, CD5, CD23, CD38, CD3, and CD52 on CLL cells relative to a specific isotype control. Cells (10^6) were washed in PBS, stained with fluorochrome-labeled antibodies at 4° C., then rinsed in PBS and analyzed by flow cytometry (EPICS-XL; Beckman Coulter, Fullerton, Calif.). A total of 10,000 events were collected and analyzed using Windows Multiple Document Interface for Flow Cytometry (WinMDI). CD20, CD19, CD3, CD5, CD23, and CD38 antibodies were obtained from BD Biosciences (San Jose, Calif.), and CD52 antibody was obtained from Serotec (Raleigh, N.C.).\nAll analyses were performed by the Center for Biostatistics, The Ohio State University. Mixed effects models were fitted to the cytotoxicity data. Random effects associated with the interactions were always included in the models to ensure that error was not underestimated. SPSS software, version 13.0 (SPSS, Chicago, Ill.) was used for the statistical analysis. Nonparametric paired Wilcoxon signed ranked tests were performed to examine both the proportion and mean fluorescence intensity change of cells expressing specific antigens after treatment with lenalidomide or media for 48 hours. A paired t test was used to evaluate whether there was a change in CD20 expression level between cells treated with lenalidomide and untreated control."}, "[3]": {"system": "CD5", "assay": "Immunophenotyping (flow cytometry) of CD5 on CLL cells", "type": "cell-based, human", "conditions": "0.5 μM, vs vehicle", "protocol": "as §1"}, "[4]": {"system": "CD20 mRNA", "assay": "Real-time RT-PCR of CD20 mRNA in CLL cells", "type": "cell-based, human", "conditions": "24 and 48 hours, compared with vehicle control", "protocol": "RNA was extracted with TRIzol reagent (Invitrogen) according to the manufacturer's directions and converted to cDNA with the SuperScript First-Strand Synthesis System (Invitrogen). Real-time polymerase chain reaction was performed using custom-designed primers for CD20 (ID: Hs00544819_m1; Applied Biosystems, Foster City, Calif.) and an ABI Prism 7700 sequence detection system (Applied Biosystems). The expression of CD20 relative to an internal control gene was calculated by plotting the Ct (cycle number), and the average relative expression for each group was determined using the comparative method (2^−Ct).^24\nThe inventors herein then determined whether the mechanism by which lenalidomide down-regulates CD20 antigen was via decreased transcription. CD20 mRNA expression level was assessed by real-time reverse-transcribed polymerase chain reaction (RT-PCR) in lenalidomide- and vehicle-treated CLL cells at 24 and 48 hours."}, "[5]": {"system": "human monocytes", "assay": "Antibody-dependent cellular phagocytosis by human monocytes", "type": "cell-based", "conditions": "data not shown"}, "[6]": {"system": "CD20", "assay": "Laser-scanning confocal microscopy of CD20 internalization", "type": "cell-based, human", "conditions": "lenalidomide 48 h at 37° C.", "protocol": "Binding and internalization of anti-CD20 in CLL cells were examined by laser scanning confocal microscopy. CLL cells were incubated with lenalidomide for 48 hours at 37° C. and then collected and washed twice with PBS followed by fixation with 2% paraformaldehyde. Cells were then attached on a slide glass using Cytospin (Thermo Electron, Waltham, Mass.) and permeablilized with cold acetone for 5 minutes. Before cell membrane and nucleus staining, cells were preincubated with 1% bovine serum albumin in PBS for 1 hour at room temperature to reduce nonspecific binding. Cells were incubated with 50 μg/mL concanavalin A (Invitrogen) for 5 minutes at room temperature to stain cell membrane and with 1 μg/mL DRAQ5TM (Biostatus, Leicestershire, United Kingdom) for 5 minutes at room temperature to stain nucleus. Finally, slides were rinsed twice with PBS and covered with glass for confocal microscopy observation. Green fluorescence of fluorescein isothiocyanate-CD20, red fluorescence of concanavalin A, and blue fluorescence of DRAQ5 were analyzed, and merged images were produced using Zeiss 510 META Laser Scanning Confocal Imaging Systems and LSM Image software (Carl Zeiss, Thornwood, N.Y.)."}, "[7]": {"system": "CD38", "assay": "Immunophenotyping (flow cytometry) of CD38 on CLL cells", "type": "cell-based, human", "conditions": "0.5 μM, 48 h, vs vehicle, n=6, P<0.05", "protocol": "as §1"}, "[8]": {"system": "CD19", "assay": "Immunophenotyping (flow cytometry) of CD19 on CLL cells", "type": "cell-based, human", "conditions": "0.5 μM, vs vehicle", "protocol": "as §1"}, "[9]": {"system": "Raji cell line xenograft", "conditions": "Raji xenograft mouse, lenalidomide alone; cited from earlier work"}, "[10]": {"system": "CD20", "assay": "Intracellular CD20 staining (flow cytometry)", "type": "cell-based, human", "protocol": "CLL cells were incubated with a molar excess of rituximab to saturate the binding of extracellular CD20. Cells were washed twice with PBS and then fixed and permeablilized using the Cytofix/Cytoperm Kit (BD Biosciences PharMingen, San Diego, Calif.) according to the manufacturer's recommendations. Cells were then incubated with CD20-phycoerythrin (PE) antibody, washed twice in PBS, and analyzed by flow cytometry. To ensure the specificity of the staining procedure, binding of IgG1-k isotype antibody was also measured."}, "[11]": {"system": "CLL cells", "assay": "Apoptosis of CLL cells with lenalidomide alone", "type": "cell-based, human", "conditions": "0.5 μM lenalidomide, 48 or 72 hours", "protocol": "CLL B cells were isolated by Ficoll centrifugation using Rosette-Sep reagent (StemCell Technologies, Vancouver, BC) according to the manufacturer's instructions. CLL cells were incubated in RPMI 1640 medium supplemented with 10% heat-inactivated human serum (Valley Biomedical, Winchester, Va.), 2 mM L-glutamine (Invitrogen, Carlsbad, Calif.), and 100 U/mL penicillin/100 μg/mL streptomycin (Sigma-Aldrich, St Louis, Mo.) at 37° C. in 5% CO2.\nIn addition, samples with no treatment or crosslinker alone were collected at matched time points. […]\nCytotoxicity results were expressed as percentage of total positive cells over untreated control [% positive cells=(% annexin^+ and/or PI^+ cells of treatment group)−(% annexin^+ and/or PI^+ cells of untreated control)]."}, "[12]": {"system": "CD23", "assay": "Immunophenotyping (flow cytometry) of CD23 on CLL cells", "type": "cell-based, human", "conditions": "0.5 μM, 48 h, vs vehicle, n=6, P=0.001", "protocol": "as §1"}, "[13]": {"conditions": "dose range 0.05-3 μM, evaluated at 24, 48 and 72 hours"}},
  "data": [
    {"smiles": "Nc1cccc2c1CN(C1CCC(=O)NC1=O)C2=O", "note": "(centres unmarked) [lenalidomide]", "values": [
      {"measurement": "total level of CD20 protein", "setting": "[1]", "value": "no variation"},
      {"measurement": "reduction in the proportion of CD20-expressing cells", "setting": "[2]; 0.5 μM, 48 h, compared with vehicle-treated controls, n=18, P<0.001", "value": "at least 40%"},
      {"measurement": "reduction in relative mean fluorescence intensity of CD20-expressing cells", "setting": "[2]; 0.5 μM, 48 h, compared with vehicle-treated controls, n=18, P=0.001", "value": "at least 40%"},
      {"measurement": "concentration of maximum effect on CD20 down-regulation", "setting": "[2]; [13]", "value": 0.5, "unit": "µM"},
      {"measurement": "time of maximum effect on CD20 down-regulation", "setting": "[2]; [13]", "value": 72, "unit": "h"},
      {"measurement": "CD5 expression on CLL cells", "setting": "[3]", "value": "no changes"},
      {"measurement": "CD20 mRNA transcription", "setting": "[4]", "value": "very modest increase"},
      {"measurement": "antibody-dependent cellular phagocytosis", "setting": "[5]", "value": "not modulated"},
      {"measurement": "CD20 internalization in CLL cells", "setting": "[6]", "value": "actively internalized"},
      {"measurement": "CD38 activation marker level on CLL cells", "setting": "[7]", "value": "increased levels"},
      {"measurement": "CD19 expression on CLL cells", "setting": "[8]", "value": "no changes"},
      {"measurement": "NK cell expansion", "setting": "[9]", "value": "induced NK cell expansion"},
      {"measurement": "tumor growth", "setting": "[9]", "value": "failed to inhibit tumor growth"},
      {"measurement": "CLL subject samples with reduction of CD20 antigen surface expression", "setting": "[10]; after lenalidomide treatment", "value": "6 of 8"},
      {"measurement": "intracellular CD20 fluorescence", "setting": "[10]; compared with vehicle-treated controls, P=0.006", "value": "increased intracellular fluorescence"},
      {"measurement": "apoptosis in vitro", "setting": "[11]", "value": "no apoptosis"},
      {"measurement": "CD23 activation marker level on CLL cells", "setting": "[12]", "value": "increased levels"}
    ]}
  ]
}
